# Measured values from patent US9896418B2, “Aryl ethers and uses thereof” (Peloton Therapeutics, Inc., priority 2013, dated 2018).
# Tested on: HIF-2α HIS TAG-PASB Domain
# Assay: HIF-2α Scintillation Proximity Assay (SPA)
# Format: binding
# Description: The percent inhibition was determined and IC50 values were calculated using the Dotmatics system based on the following equation: % inhibition=[(high control−sample)/(high control−low control)]×100.
row,IC50 [µM],SMILES
1,23.9,"CS(=O)(=O)c1ccc(Oc2cncc(C#N)c2)c2c1[C@H](O)C(F)(F)[C@H]2F [Compound 343, 5-(((1S,3S)-2,2,3-trifluoro-1-hydroxy-7-(methylsulfonyl)-2,3-dihydro-1H-inden-4-yl)oxy)nicotinonitrile]"
2,0.0067,"N#Cc1cncc(Oc2ccc(S(=O)(=O)CF)c3c2[C@@H](F)C(F)(F)[C@H]3O)c1 [Compound 344, 5-(((1S,3R)-2,2,3-trifluoro-7-((fluoromethyl)sulfonyl)-1-hydroxy-2,3-dihydro-1H-inden-4-yl)oxy)nicotinonitrile]"
3,2.18,"N#Cc1cncc(Oc2ccc(S(=O)(=O)CF)c3c2[C@H](F)C(F)(F)[C@H]3O)c1 [Compound 345, 5-(((1S,3S)-2,2,3-trifluoro-7-((fluoromethyl)sulfonyl)-1-hydroxy-2,3-dihydro-1H-inden-4-yl)oxy)nicotinonitrile]"
4,0.515,CS(=O)(=O)c1ccc(Oc2cc(F)cc(C#N)c2)c2c1[C@H](N)C(F)(F)[C@@H]2F [Compound 346]
5,0.25,"N#Cc1cncc(Oc2ccc(S(=O)(=O)C(F)F)c3c2CC(F)(F)[C@H]3O)c1 [Example 27, (S)-5-((7-((Difluoromethyl)sulfonyl)-2,2-difluoro-1-hydroxy-2,3-dihydro-1H-inden-4-yl)oxy)nicotinonitrile]"
6,< 0.005,"O=S(=O)(c1ccc(Oc2cc(F)cc(F)c2)c2c1[C@H](O)CC2)C(F)(F)F [Example 55, (R)-4-(3,5-Difluorophenoxy)-7-((trifluoromethyl)sulfonyl)-2,3-dihydro-1H-inden-1-ol]"
7,< 0.005,"O[C@@H]1CCc2c(Oc3cc(F)cc(F)c3)ccc(C(F)(F)F)c21 [Example 58, (R)-4-(3,5-Difluorophenoxy)-7-(trifluoromethyl)-2,3-dihydro-1H-inden-1-ol]"
8,0.35,"CS(=O)(=O)c1ccc(Oc2cncc(Cl)c2)c2c1[C@H](O)C(F)(F)C2 [Example 115, (S)-4-((5-Chloropyridin-3-yl)oxy)-2,2-difluoro-7-(methylsulfonyl)-2,3-dihydro-1H-inden-1-ol]"
9,< 0.005,"CS(=O)(=O)c1ccc(Oc2cc(F)cc(Cl)c2)c2c1[C@H](O)C(F)(F)C2 [Example 160, (1S)-4-(3-Chloro-5-fluoro-phenoxy)-2,2-difluoro-7-methylsulfonyl-indan-1-ol]"
10,< 0.005,"N#Cc1cc(F)cc(Oc2ccc(S(=O)(=O)C(F)(F)F)c3c2CC(F)(F)[C@H]3O)c1 [Example 185, (S)-3-((2,2-Difluoro-1-hydroxy-7-((trifluoromethyl)sulfonyl)-2,3-dihydro-1H-inden-4-yl)oxy)-5-fluorobenzonitrile]"
11,< 0.005,"O=S(=O)(c1ccc(Oc2cncc(Cl)c2)c2c1[C@H](O)C(F)(F)C2)C(F)(F)F [Example 186, (S)-4-((5-Chloropyridin-3-yl)oxy)-2,2-difluoro-7-((trifluoromethyl)sulfonyl)-2,3-dihydro-1H-inden-1-ol]"
12,0.079,"O=S(=O)(CF)c1ccc(Oc2cncc(Cl)c2)c2c1[C@H](O)C(F)(F)C2 [Example 187, (S)-4-((5-Chloropyridin-3-yl)oxy)-2,2-difluoro-7-((fluoromethyl)sulfonyl)-2,3-dihydro-1H-inden-1-ol]"
13,< 0.005,"CS(=O)(=NC#N)c1ccc(Oc2cc(F)cc(F)c2)c2c1C(O)C(F)(F)C2 (stereo not drawn) [Example 191, N-((7-(3,5-difluorophenoxy)-2,2-difluoro-3-hydroxy-2,3-dihydro-1H-inden-4-yl)(methyl)(oxo)-λ^6-sulfanylidene)cyanamide]"
14,0.18,"CS(=N)(=O)c1ccc(Oc2cc(F)cc(F)c2)c2c1[C@H](O)C(F)(F)C2 (stereo partly drawn) [Example 192, ((S)-7-(3,5-Difluorophenoxy)-2,2-difluoro-3-hydroxy-2,3-dihydro-1H-inden-4-yl)(imino)(methyl)-λ^6-sulfanone]"
15,0.029,"O=S(=O)(c1ccc(Oc2ccc(F)c(Cl)c2)c2c1[C@H](O)C(F)(F)C2)C(F)(F)F [Example 221, (S)-4-(3-Chloro-4-fluorophenoxy)-2,2-difluoro-7-((trifluoromethyl)sulfonyl)-2,3-dihydro-1H-inden-1-ol]"
